Values joined by “and” are separate entries in the source; they are usually repeats but may differ in a detail not shown here. Equal entries are not always repeated.
Assays:
Type in all cases: cell-based
[1] = system: Lactobacillus brevis ISI 2269; experiment: Minimal inhibitory concentration (MIC)
Experimental: (§1) Minimum inhibitory concentrations (MICs) are defined as the lowest concentration of an antimicrobial that will inhibit the visible growth of a microorganism after a standardized incubation. In the present study, MIC assay was performed by pipetting robot. The principle is that an indicator microorganism at a defined cell density is cultured with a range of concentrations of the test compound, one concentration pr, well in a row on the microtiter plate. For bacteria and yeasts the minimal inhibitory concentration was detected as no increase of optical density (OD), for moulds microtiter plates were read visually. Each indicator organism is tested in duplicate and the MIC is calculated as the average of the two determinations. The tested concentrations of the antimicrobial substances were 2-fold dilutions from 5%. All indicator organisms (see Table 2.) were pre-cultivated in a suitable growth medium and diluted in the same medium to give a final concentration in the assay of ˜1×10^3 cfu/ml. The microtiter plates were incubated under specific incubation conditions (see Table III). [table]

[2] = system: Pseudomonas aeruginosa ISI 1462; experiment: Minimal inhibitory concentration (MIC)
Experimental: as §1

[3] = system: Salmonella Infantis ISI 170; experiment: Minimal inhibitory concentration (MIC)
Experimental: as §1

Bacillus cereus ISI 842 = experiment: Minimum bactericidal concentration (MBC); parameters: MBC data (outgrowth): unit not given here
From the text: (§2) Even when no growth is detectable in the MIC tests, it is possible that the microorganisms have survived the treatment i.e., they are not killed but just prevented from growing. In order to test for survivors, MBC plates were subsequently made from the MIC plates.

[4] = system: Candida albicans ISI 1226; experiment: Minimum bactericidal concentration (MBC); parameters: MBC data (outgrowth): unit not given here
From the text: as §2

[5] = system: Lactobacillus brevis ISI 2269; experiment: Minimum bactericidal concentration (MBC); parameters: MBC data (outgrowth): unit not given here
From the text: as §2

[6] = system: Pseudomonas aeruginosa ISI 1462; experiment: Minimum bactericidal concentration (MBC); parameters: MBC data (outgrowth): unit not given here
From the text: as §2

[7] = system: Salmonella Infantis ISI 170; experiment: Minimum bactericidal concentration (MBC); parameters: MBC data (outgrowth): unit not given here
From the text: as §2

[8] = system: Leuconostoc mesenteroides ISI 504; experiment: Minimum bactericidal concentration (MBC); parameters: MBC data (outgrowth): unit not given here
From the text: as §2

[9] = system: Listeria monocytogenes ISI 22; experiment: Minimum bactericidal concentration (MBC); parameters: MBC data (outgrowth): unit not given here
From the text: as §2

[10] = system: Debaryomyces hansenii ISI 12; experiment: Minimum bactericidal concentration (MBC); parameters: MBC data (outgrowth): unit not given here
From the text: as §2

[11] = system: Streptococcus termophilus ISI 1563; experiment: Minimum bactericidal concentration (MBC); parameters: MBC data (outgrowth): unit not given here
From the text: as §2

`CCCCN(CCO)CCO` [NBDA, N-butyldiethanolamine] was tested, and the “MIC (%)” value [1] was 0.16%, the “MIC data (optical density)” value ([1]; 0.02% NBDA) was 0.509 and 0.458 and the “MIC data (optical density)” value ([1]; 0.04% NBDA) was 0.468 and 0.485. The “MIC data (optical density)” value ([1]; 0.08% NBDA) was 0.465 and 0.586, the “MIC data (optical density)” value ([1]; 0.16% NBDA) was 0.054 and 0.057 and the “MIC data (optical density)” value ([1]; 0.31% NBDA) was 0.049 and 0.048. The “MIC data (optical density)” value ([1]; 0.63% NBDA) was 0.047 and 0.046, the “MIC data (optical density)” value ([1]; 1.25% NBDA) was 0.047 and 0.045 and the “MIC data (optical density)” value ([1]; 2.50% NBDA) was 0.046 and 0.049. For the same compound, the “MIC data (optical density)” value ([1]; 5.00% NBDA) was 0.043 and 0.040, the “MIC (%)” value [2] was 0.63% and the “MIC data (optical density)” value ([2]; 0.02% NBDA) was 1.725 and 1.921. The “MIC data (optical density)” value ([2]; 0.04% NBDA) was 1.894 and 1.661, the “MIC data (optical density)” value ([2]; 0.08% NBDA) was 1.938 and 1.871 and the “MIC data (optical density)” value ([2]; 0.16% NBDA) was 1.888 and 1.911. For the same compound, the “MIC data (optical density)” value ([2]; 0.31% NBDA) was 1.668 and 1.319, the “MIC data (optical density)” value ([2]; 0.63% NBDA) was 0.047 and 0.044 and the “MIC data (optical density)” value ([2]; 1.25% NBDA) was 0.045 and 0.043. The “MIC data (optical density)” value ([2]; 2.50% NBDA) was 0.046 and 0.047, the “MIC data (optical density)” value ([2]; 5.00% NBDA) was 0.045 and the “MIC (%)” value [3] was 1.25%. For the same compound, the “MIC data (optical density)” value ([3]; 0.02% NBDA) was 1.662 and 1.413, the “MIC data (optical density)” value ([3]; 0.04% NBDA) was 1.501 and 1.629 and the “MIC data (optical density)” value ([3]; 0.08% NBDA) was 1.640 and 1.623. The “MIC data (optical density)” value ([3]; 0.16% NBDA) was 1.566 and 1.546, the “MIC data (optical density)” value ([3]; 0.31% NBDA) was 1.389 and 1.282 and the “MIC data (optical density)” value ([3]; 0.63% NBDA) was 0.905 and 0.965. The “MIC data (optical density)” value ([3]; 1.25% NBDA) was 0.046 and 0.040, the “MIC data (optical density)” value ([3]; 2.50% NBDA) was 0.047 and 0.044 and the “MIC data (optical density)” value ([3]; 5.00% NBDA) was 0.044 and 0.043. For the same compound, the “MBC (%)” value (Bacillus cereus ISI 842) was 1.25%, the “MBC data (outgrowth)” value (Bacillus cereus ISI 842; 0.02% NBDA) was 1.261 and 1.253 and the “MBC data (outgrowth)” value (Bacillus cereus ISI 842; 0.04% NBDA) was 1.106 and 1.352. The “MBC data (outgrowth)” value (Bacillus cereus ISI 842; 0.08% NBDA) was 1.098 and 1.118, the “MBC data (outgrowth)” value (Bacillus cereus ISI 842; 0.16% NBDA) was 1.286 and 1.086 and the “MBC data (outgrowth)” value (Bacillus cereus ISI 842; 0.31% NBDA) was 1.277 and 1.161. The “MBC data (outgrowth)” value (Bacillus cereus ISI 842; 0.63% NBDA) was 1.117 and 1.001, the “MBC data (outgrowth)” value (Bacillus cereus ISI 842; 1.25% NBDA) was 0.075 and 0.076 and the “MBC data (outgrowth)” value (Bacillus cereus ISI 842; 2.50% NBDA) was 0.072 and 0.078. The “MBC data (outgrowth)” value (Bacillus cereus ISI 842; 5.00% NBDA) was 0.066, the “MBC (%)” value [4] was 1.25% and the “MBC data (outgrowth)” value ([4]; 0.02% NBDA) was 1.332 and 1.357. The “MBC data (outgrowth)” value ([4]; 0.04% NBDA) was 1.291 and 1.314, the “MBC data (outgrowth)” value ([4]; 0.08% NBDA) was 1.278 and 1.314 and the “MBC data (outgrowth)” value ([4]; 0.16% NBDA) was 1.171 and 1.485. For the same compound, the “MBC data (outgrowth)” value ([4]; 0.31% NBDA) was 1.168 and 1.175, the “MBC data (outgrowth)” value ([4]; 1.25% NBDA) was 0.079 and 0.080 and the “MBC data (outgrowth)” value ([4]; 2.50% NBDA) was 0.074 and 0.075. The “MBC data (outgrowth)” value ([4]; 5.00% NBDA) was 0.068, the “MBC (%)” value [5] was 0.31% and the “MBC data (outgrowth)” value ([5]; 0.02% NBDA) was 0.446 and 0.463. The “MBC data (outgrowth)” value ([5]; 0.04% NBDA) was 0.439 and 0.455, the “MBC data (outgrowth)” value ([5]; 0.08% NBDA) was 0.447 and 0.470 and the “MBC data (outgrowth)” value ([5]; 0.16% NBDA) was 0.755 and 1.060. The “MBC data (outgrowth)” value ([5]; 0.31% NBDA) was 0.078 and 0.077, the “MBC data (outgrowth)” value ([5]; 0.63% NBDA) was 0.208 and 0.248 and the “MBC data (outgrowth)” value ([5]; 1.25% NBDA) was 0.077. For the same compound, the “MBC data (outgrowth)” value ([5]; 2.50% NBDA) was 0.075 and 0.077, the “MBC data (outgrowth)” value ([5]; 5.00% NBDA) was 0.067 and 0.068 and the “MBC (%)” value [6] was 1.25%. For the same compound, the “MBC data (outgrowth)” value ([6]; 0.02% NBDA) was 1.360 and 2.248, the “MBC data (outgrowth)” value ([6]; 0.04% NBDA) was 2.186 and 1.311 and the “MBC data (outgrowth)” value ([6]; 0.08% NBDA) was 1.779 and 2.051. The “MBC data (outgrowth)” value ([6]; 0.16% NBDA) was 1.680 and 2.303, the “MBC data (outgrowth)” value ([6]; 0.31% NBDA) was 1.477 and 1.570 and the “MBC data (outgrowth)” value ([6]; 0.63% NBDA) was 1.909 and 1.789. For the same compound, the “MBC data (outgrowth)” value ([6]; 1.25% NBDA) was 0.071 and 0.070, the “MBC data (outgrowth)” value ([6]; 2.50% NBDA) was 0.071 and 0.069 and the “MBC data (outgrowth)” value ([6]; 5.00% NBDA) was 0.066 and 0.061. For the same compound, the “MBC (%)” value [7] was 1.25%, the “MBC data (outgrowth)” value ([7]; 0.02% NBDA) was 1.732 and 1.806 and the “MBC data (outgrowth)” value ([7]; 0.04% NBDA) was 1.858 and 1.853. For the same compound, the “MBC data (outgrowth)” value ([7]; 0.08% NBDA) was 1.841 and 1.791, the “MBC data (outgrowth)” value ([7]; 0.16% NBDA) was 1.826 and 1.827 and the “MBC data (outgrowth)” value ([7]; 0.31% NBDA) was 1.786 and 1.488. For the same compound, the “MBC data (outgrowth)” value ([7]; 0.63% NBDA) was 1.806 and 1.787, the “MBC data (outgrowth)” value ([7]; 1.25% NBDA) was 0.074 and 0.071 and the “MBC data (outgrowth)” value ([7]; 2.50% NBDA) was 0.068 and 0.070. For the same compound, the “MBC data (outgrowth)” value ([7]; 5.00% NBDA) was 0.066 and 0.060, the “MBC (%)” value [8] was 0.63% and the “MBC data (outgrowth)” value ([8]; 0.02% NBDA) was 1.449 and 1.467. The “MBC data (outgrowth)” value ([8]; 0.04% NBDA) was 1.449 and 1.468, the “MBC data (outgrowth)” value ([8]; 0.08% NBDA) was 1.413 and 1.467 and the “MBC data (outgrowth)” value ([8]; 0.16% NBDA) was 1.337 and 1.425. The “MBC data (outgrowth)” value ([8]; 0.31% NBDA) was 1.452 and 1.448, the “MBC data (outgrowth)” value ([8]; 1.25% NBDA) was 0.075 and the “MBC data (outgrowth)” value ([8]; 2.50% NBDA) was 0.076 and 0.077. For the same compound, the “MBC data (outgrowth)” value ([8]; 5.00% NBDA) was 0.066 and 0.067, the “MBC (%)” value [9] was 2.5% and the “MBC data (outgrowth)” value ([9]; 0.02% NBDA) was 1.197 and 1.009. For the same compound, the “MBC data (outgrowth)” value ([9]; 0.04% NBDA) was 1.195 and 1.097, the “MBC data (outgrowth)” value ([9]; 0.08% NBDA) was 1.201 and 1.059 and the “MBC data (outgrowth)” value ([9]; 0.16% NBDA) was 1.216 and 1.141. For the same compound, the “MBC data (outgrowth)” value ([9]; 0.31% NBDA) was 1.320 and 1.310, the “MBC data (outgrowth)” value ([9]; 0.63% NBDA) was 1.496 and 1.507 and the “MBC data (outgrowth)” value ([9]; 1.25% NBDA) was 1.517 and 1.533. For the same compound, the “MBC data (outgrowth)” value ([9]; 2.50% NBDA) was 0.065 and 0.070, the “MBC data (outgrowth)” value ([9]; 5.00% NBDA) was 0.060 and 0.062 and the “MBC (%)” value [10] was 2.5%. For the same compound, the “MBC data (outgrowth)” value ([10]; 0.02% NBDA) was 1.491 and 1.495, the “MBC data (outgrowth)” value ([10]; 0.04% NBDA) was 1.493 and 1.461 and the “MBC data (outgrowth)” value ([10]; 0.08% NBDA) was 1.472. For the same compound, the “MBC data (outgrowth)” value ([10]; 0.16% NBDA) was 1.473 and 1.469, the “MBC data (outgrowth)” value ([10]; 0.31% NBDA) was 1.432 and 1.393 and the “MBC data (outgrowth)” value ([10]; 0.63% NBDA) was 1.387 and 1.458. For the same compound, the “MBC data (outgrowth)” value ([10]; 1.25% NBDA) was 1.333 and 1.309, the “MBC data (outgrowth)” value ([10]; 2.50% NBDA) was 0.074 and the “MBC data (outgrowth)” value ([10]; 5.00% NBDA) was 0.068 and 0.069. The “MBC (%)” value [11] was 1.25%, the “MBC data (outgrowth)” value ([11]; 0.02% NBDA) was 0.346 and 0.323 and the “MBC data (outgrowth)” value ([11]; 0.04% NBDA) was 0.307 and 0.283. For the same compound, the “MBC data (outgrowth)” value ([11]; 0.08% NBDA) was 0.311 and 0.304, the “MBC data (outgrowth)” value ([11]; 0.16% NBDA) was 0.251 and 0.232 and the “MBC data (outgrowth)” value ([11]; 0.31% NBDA) was 0.802 and 0.522. For the same compound, the “MBC data (outgrowth)” value ([11]; 0.63% NBDA) was 0.277 and 0.427, the “MBC data (outgrowth)” value ([11]; 1.25% NBDA) was 0.072 and the “MBC data (outgrowth)” value ([11]; 2.50% NBDA) was 0.070 and 0.068. The “MBC data (outgrowth)” value ([11]; 5.00% NBDA) was 0.062 and 0.058.
